Here are results for 14 compounds from patent US10287267B2, “Isoquinolin-3-yl carboxamides and preparation and use thereof” (Samumed, LLC, priority 2016, dated 2019).

Assay [1] deals with Wnt pathway (Sp5-Luc reporter, TCF/LEF binding sites) in SW480 colon carcinoma cells. In words: Screening assay for Wnt activity: Sp5-Luc reporter gene assay.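 For all read-outs here: firefly luciferase luminescence read in stably transduced SW480 cells carrying the Sp5 promoter reporter with eight TCF/LEF sites, compounds given in 0.1% DMSO final.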 It is filed as cell-based, human. The following applies: Homo sapiens; for EC50: Sp5-Luc reporter, SW480 cells, 36 to 48 hours.
Protocol: The screening assay for Wnt activity is described as follows.
Following incubation, 15 μl of BriteLite Plus luminescence reagent (Perkin Elmer) was added to each well of the 384-well assay plates. The plates were placed on an orbital shaker for 2 min and then luminescence was quantified using the Envision (Perkin Elmer) plate reader.
Assay [2] has as its target recombinant DYRK1A kinase (Homo sapiens (Human), UniProt Q13627). Description: DYRK1A kinase assay (Ser/Thr 18 peptide Z-lyte FRET).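 Note: Read-out is the coumarin to fluorescein emission ratio, referenced to unphosphorylated (0%) and phosphorylated (100%) Ser/Thr 18 peptide controls, values from dose-response curves by non-linear regression.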 It is filed as biochemical. The following applies: 30 μM ATP, 1 h room temperature.
The next assay concerns the target recombinant GSK3β kinase (Homo sapiens (Human), UniProt P49841). In words: GSK3β kinase assay (Ser/Thr 09 peptide Z-lyte FRET).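 Note: kinase activity read as coumarin to fluorescein emission ratio, 11-point threefold dilutions from 10 µM to 0.0003 µM in duplicate, unphosphorylated and phosphorylated peptide as 0% and 100% controls.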 The class given is biochemical. To be noted: 46 μM ATP, 1 h room temperature.
The subject of assay [3] is Tau phosphorylation at Ser396 (pSer396). In words: Tau phosphorylation assay (pSer396 ELISA / western blot) in SH-SY5Y cells.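 Note: EC50 for reduction of Tau pSer396 in lysed cells, measured by colorimetric ELISA or chemiluminescent western blot, both using the same pSer396 antibody.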 The class given is cell-based, human. The following applies: Homo sapiens, read-out: pSer396 Tau EC50. On the technique in general: In an ELISA, binding on a coated surface is turned into a signal by an enzyme label.
Assay [4] deals with SW480 colon carcinoma cells. In words: Cell viability assay (CellTiter-Glo). The class given is cell-based, human. The following applies: Homo sapiens; for EC50: 96 h, SW480 cells, CellTiter-Glo, four days incubation. For orientation: ATP-based viability assays read luminescence as a measure of living cells.
The subject of assay [5] is α-smooth muscle actin (αSMA) positive LL29 cells. Description: Inhibition of fibrotic process: αSMA in TGF-β1 treated primary human fibroblasts from IPF patients.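 For all read-outs here: controls were TGF-β1 stimulated wells with DMSO vehicle (positive) and cells given DMSO alone (negative), cultured in F12 medium with 1% fetal bovine serum.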 The class given is cell-based. To be noted: Homo sapiens, Fibroblast; for EC50: 96 h, Table 8, LL29 fibroblasts from IPF patients, TGF-β1 20 ng/mL, 4 days, dose-response 10 μM to 0.94 nM.
In the next assay the test system is IL-6. In words: IL-6 inhibition in LPS-stimulated human peripheral blood mononuclear cells (HTRF).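 For all read-outs here: IL-6 detected by HTRF with an XL665- and Cryptate-labelled anti-IL-6 antibody pair, samples run in duplicate, EC50 obtained from a four-parameter Levenberg-Marquardt curve fit.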 The class given is cell-based. To be noted: Homo sapiens, PBMC; for EC50: Table 9, huPBMCs, LPS 50 ng/mL, 22 hours, dose-response starting from 10 μM.
[6] abbreviates: SH-SY5Y cells, overnight (16-18 h) exposure.
The mark [7] stands for this setting: read-out: percent value in parentheses beside EC50 >10 μM.
The mark [8] stands for this setting: SW480, read-out: percent inhibition at 10 μM.

Like-named read-outs stand apart in the source and are kept apart here.

Sequence of recombinant GSK3β kinase (P49841 whole entry): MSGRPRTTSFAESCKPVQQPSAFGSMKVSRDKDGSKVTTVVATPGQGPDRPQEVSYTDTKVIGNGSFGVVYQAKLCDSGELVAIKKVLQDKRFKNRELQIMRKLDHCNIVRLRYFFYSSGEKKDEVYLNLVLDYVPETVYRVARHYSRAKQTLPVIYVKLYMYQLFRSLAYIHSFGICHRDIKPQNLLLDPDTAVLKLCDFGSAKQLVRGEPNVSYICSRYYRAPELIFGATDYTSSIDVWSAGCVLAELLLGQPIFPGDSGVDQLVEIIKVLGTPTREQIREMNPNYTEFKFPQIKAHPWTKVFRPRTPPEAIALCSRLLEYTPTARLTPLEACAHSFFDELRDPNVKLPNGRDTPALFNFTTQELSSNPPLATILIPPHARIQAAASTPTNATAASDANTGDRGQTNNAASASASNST
Protocol for IL-6: After 22 hour incubation, a mixture of anti-IL6 XL665 and anti-IL-6 Cryptate diluted in reconstitution buffer (Catalog #62IL6PEC, Cisbio Inc., Bedford, Mass.) was added to each well. […] All samples were processed in duplicate. […] EC50 was determined using software generated by Dotmatics Limited (Windhill Bishops Stortford Herts, UK) using the Levenberg-Marquardt 4 parameter fitting procedure with finite different gradients.

As for `Cn1cc(-c2ccc3cnc(NC(=O)C4CC4)cc3c2)nn1` [Compound 433, N-(6-(1-Methyl-1H-1,2,3-triazol-4-yl)isoquinolin-3-yl) cyclopropanecarboxamide], the EC50 (commonly the midpoint of the concentration-response curve) turned out to be 191 nM in assay [1]; 1.9 nM in assay [2]; 1 nM at recombinant GSK3β kinase; 32 nM in assay [3] (setting [6]); 615 nM in assay [4]; 52 nM in assay [5]. The same compound yielded a concentration for a half-maximal effect (EC50) in the assay with IL-6 of 411 nM.
`Cn1cc(-c2ccc3cnc(NC(=O)C4CCC(F)(F)CC4)cc3c2)nn1` [Compound 441, 4,4-Difluoro-N-(6-(1-methyl-1H-1,2,3-triazol-4-yl)isoquinolin-3-yl) cyclohexane-1-carboxamide]: the EC50 turned out to be 1210 nM in assay [1]; 9.1 nM in assay [2]; 5 nM at recombinant GSK3β kinase; 73 nM in assay [3] (setting [6]); 5270 nM in assay [4]; 57 nM in assay [5]. In the assay with IL-6, the EC50 worked out at 3350 nM.
In the case of `Cn1cc(-c2ccc3cnc(NC(=O)[C@H]4CC[C@H](N(C)C)CC4)cc3c2)nn1` [Compound 443, trans-4-(Dimethylamino)-N-(6-(1-methyl-1H-1,2,3-triazol-4-yl)isoquinolin-3-yl)cyclohexane-1-carboxamide], the EC50 worked out at 397 nM in assay [1]; 2.2 nM in assay [2]; 13 nM at recombinant GSK3β kinase; 289 nM in assay [3] (setting [6]); 1680 nM in assay [4]; 371 nM in assay [5]. In addition, it took 3290 nM to reach a half-maximal effect with IL-6 (EC50).
Take `CN1CCN(C[C@H]2CC[C@H](C(=O)Nc3cc4cc(-c5cn(C)nn5)ccc4cn3)CC2)CC1` [Compound 448, trans-N-(6-(1-Methyl-1H-1,2,3-triazol-4-yl)isoquinolin-3-yl)-4-((4-methylpiperazin-1-yl)methyl)cyclohexane-1-carboxamide]: the EC50 in assay [1] stood at 289 nM; in assay [2], 1.2 nM; on recombinant GSK3β kinase, 11 nM; in assay [3] (setting [6]) it was 106 nM; in assay [4], 626 nM; in assay [5], 59 nM. The EC50 with IL-6 was 2180 nM.
`Cn1cc(-c2ccc3cnc(NC(=O)C4CCNCC4)cc3c2)nn1` [Compound 452, N-(6-(1-Methyl-1H-1,2,3-triazol-4-yl)isoquinolin-3-yl)piperidine-4-carboxamide]: the concentration giving a half-maximal response (EC50) is 787 nM in assay [1]; 0.4 nM in assay [2]; 7 nM at recombinant GSK3β kinase; 912 nM in assay [3] (setting [6]); 1450 nM in assay [4]; 220 nM in assay [5]. The compound also registered a concentration for a half-maximal effect (EC50) with IL-6 of 2970 nM.
For the compound `Cn1cc(-c2ccc3cnc(NC(=O)C4CCN(CC5(C(F)(F)F)CC5)CC4)cc3c2)nn1` [Compound 470, N-(6-(1-Methyl-1H-1,2,3-triazol-4-yl)isoquinolin-3-yl)-1-((1-(trifluoromethyl)cyclopropyl)methyl)piperidine-4-carboxamide], the EC50 in assay [1] was found to be 1180 nM; in assay [2] it was 2.7 nM; at recombinant GSK3β kinase, 4 nM; in assay [3] (setting [6]), 95 nM; in assay [4], 4190 nM; in assay [5], 387 nM. Besides, the half-maximal effective concentration (EC50) with IL-6 stood at 3550 nM.
Turning to `Cn1cc(-c2ccc3cnc(NC(=O)C4CCN(CC5(C)COC5)CC4)cc3c2)nn1` [Compound 472, N-(6-(1-Methyl-1H-1,2,3-triazol-4-yl)isoquinolin-3-yl)-1-((3-methyloxetan-3-yl)methyl)piperidine-4-carboxamide], the EC50 stood at 382 nM in assay [1]; 3.2 nM in assay [2]; 8 nM at recombinant GSK3β kinase; 200 nM in assay [3] (setting [6]); 5090 nM in assay [4]; 243 nM in assay [5]. The EC50 in the assay with IL-6 was found to be 5410 nM.
With `Cn1cc(-c2ccc3cnc(NC(=O)C4CCN(C(=O)CN5CCCC5)CC4)cc3c2)nn1` [Compound 475, N-(6-(1-Methyl-1H-1,2,3-triazol-4-yl)isoquinolin-3-yl)-1-(2-(pyrrolidin-1-yl)acetyl)piperidine-4-carboxamide], the EC50 was 701 nM in assay [1]; 3.2 nM in assay [2]; 23 nM at recombinant GSK3β kinase; 1800 nM in assay [3] (setting [6]); 1060 nM in assay [4]; 140 nM in assay [5]. Besides, the EC50 in the assay on IL-6 came to 2560 nM.
With `CN1CCC(N2CCC(C(=O)Nc3cc4cc(-c5cn(C)nn5)ccc4cn3)CC2)CC1` [Compound 477, 1′-Methyl-N-(6-(1-methyl-1H-1,2,3-triazol-4-yl)isoquinolin-3-yl)-[1,4′-bipiperidine]-4-carboxamide], the concentration giving a half-maximal response (EC50) in assay [1] worked out at 327 nM; in assay [2], 1.1 nM; at recombinant GSK3β kinase, 6 nM; in assay [3] (setting [6]) it was 188 nM; in assay [4], 719 nM; in assay [5] it was 77 nM. This compound also showed a concentration giving a half-maximal response (EC50) in the assay on IL-6 of 2990 nM.
As to `Cn1cc(-c2ccc3cnc(NC(=O)[C@@H]4CCCNC4)cc3c2)nn1` [Compound 481, (R)—N-(6-(1-Methyl-1H-1,2,3-triazol-4-yl)isoquinolin-3-yl)piperidine-3-carboxamide], the EC50 in assay [1] stood at 1540 nM; in assay [2], 4.3 nM; at recombinant GSK3β kinase, 4 nM; in assay [3] (setting [6]), 662 nM; in assay [4], 1370 nM; in assay [5] it was 1020 nM. Further, the EC50 in the assay on IL-6 was found to be 1140 nM.
On to `CC(C)CN1CCC[C@@H](C(=O)Nc2cc3cc(-c4cn(C)nn4)ccc3cn2)C1` [Compound 483, (R)-1-Isobutyl-N-(6-(1-methyl-1H-1,2,3-triazol-4-yl)isoquinolin-3-yl) piperidine-3-carboxamide], for which the concentration giving a half-maximal response (EC50) was 1870 nM in assay [1]; 11.3 nM in assay [2]; 45 nM on recombinant GSK3β kinase; 611 nM in assay [3] (setting [6]); 7340 nM in assay [4]; 315 nM in assay [5]. In addition, in the assay on IL-6, the 50% effective concentration (EC50) came to 9620 nM.
In the case of `Cn1cc(-c2ccc3cnc(NC(=O)CN4CCCC4)cc3c2)nn1` [Compound 487, N-(6-(1-Methyl-1H-1,2,3-triazol-4-yl)isoquinolin-3-yl)-2-(pyrrolidin-1-yl) acetamide], the half-maximal effective concentration (EC50) amounted to 446 nM in assay [1]; 7.7 nM in assay [2]; 7 nM at recombinant GSK3β kinase; 161 nM in assay [3] (setting [6]); 2680 nM in assay [4]; 367 nM in assay [5]. Further, the concentration for a half-maximal effect (EC50) in the assay on IL-6 amounted to 3300 nM.
Turning to `Cn1cc(-c2ccc3cnc(NC(=O)CN4C5CCC4CC5)cc3c2)nn1` [Compound 513, 2-(7-Azabicyclo[2.2.1]heptan-7-yl)-N-(6-(1-methyl-1H-1,2,3-triazol-4-yl)isoquinolin-3-yl)acetamide], the EC50 stood at 6430 nM in assay [1]; 10.4 nM in assay [2]; 43 nM on recombinant GSK3β kinase; 864 nM in assay [3] (SH-SY5Y); 9060 nM in assay [4]; 1350 nM in assay [5]. Further, in the assay with IL-6, the 50% effective concentration (EC50) is above 10000 nM. Besides, the inhibition at 10 µM with IL-6 (setting [7]) amounted to 14.5%.
As to `Cn1cncc1-c1ccc2cnc(NC(=O)C(C)(C)F)cc2c1` [Compound 517, 2-Fluoro-2-methyl-N-(6-(1-methyl-1H-imidazol-5-yl)isoquinolin-3-yl) propanamide], the inhibition at 10 µM in assay [1] (setting [8]) amounted to 35.8%; in assay [4] (setting [8]) it was 27.5%; in assay [5] (setting [7]) it was 29.9%. Further, the EC50 in assay [1] is above 10000 nM; in assay [2] it was 9.6 nM; at recombinant GSK3β kinase, 470 nM; in assay [3] (setting [6]), 1300 nM; in assay [4], above 10000 nM; in assay [5] it was above 10000 nM. The response in the assay with IL-6 was half-maximal at 9070 nM (EC50).
